In ChEMBL document CHEMBL5532709, “Discovery of Biofilm Inhibitors from the Microbiota of Marine Egg Masses” (J Nat Prod, 2024) one finds IC50, inhibition and Activity data, which are given here for three compounds.

One assay concerns Vibrio cholerae. As to the kind of experiment: Inhibition of biofilm formation of Vibrio cholerae incubated for 4.5 hrs by epifluorescence based assay. Type of assay: functional, organism-based.
The subject of a further assay is Isoptericola. The assay is described as follows: Inhibition of biofilm formation of Isoptericola at 0.005 to 10 mg/ml incubated for 16 to 20 hrs by crystal violet staining based analysis. It is filed as functional, organism-based.
The subject of assay [1] is Staphylococcus aureus. As to the kind of experiment: Inhibition of biofilm formation of Staphylococcus aureus incubated for 16 to 20 hrs by crystal violet staining based analysis. Type of assay: functional, organism-based.
Assay [2] deals with Staphylococcus aureus. The assay is described as follows: Antibacterial activity against Staphylococcus aureus assessed as bacterial growth inhibition at 0.005 to 10 mg/ml incubated for 16 to 20 hrs by crystal violet staining based analysis. Type of assay: functional, organism-based. The conditions noted are these: dose 0.005-10 mg/ml, time 16-20 hrs.
Assay [3] has as its system Staphylococcus aureus. The assay is described as follows: Inhibition of biofilm formation of Staphylococcus aureus at […] incubated for 16 to 20 hrs in presence of >6.25 uM FeCl3 by crystal violet staining based analysis. Type of assay: functional, organism-based. The conditions noted are these: dose lower 88.0 mg/ml, time 16-20 hrs.
Assay [4] concerns Staphylococcus aureus. As to the kind of experiment: Disruption of pre-formed biofilm of Staphylococcus aureus at 518 uM incubated for 16 to 20 hrs by crystal violet staining based analysis relative to control. Type of assay: functional. The conditions noted are these: time 16-20 hrs.
The subject of assay [5] is Staphylococcus aureus. As to the kind of experiment: Inhibition of biofilm formation of methicillin-resistant Staphylococcus aureus N315 at ~1 ug/ml incubated for 24 hrs by crystal violet staining based analysis relative to control. It is filed as functional.

Structures are written as SMILES. The source made the active and inactive calls. No cut-off for these calls is given here.

Usually IC50 stands for the concentration that inhibits the measured activity by half. A high value points to weaker potency. Turning to `C=C1Oc2cc(OC)cc(C(=O)OC)c2NC1=O`, inhibition in the assay on Vibrio cholerae was half-maximal at 60.1 µM (IC50).

As a reminder, the inhibition is the percentage by which the read-out fell short of the control. For the compound `O=C(NCCCC[C@@H]1CN=C(c2cccc(O)c2O)N1)c1cccc(O)c1O`, the figures for the IC50 with Isoptericola and with Staphylococcus aureus [1] were 50.6 µM and 88.5 µM, respectively. In the assay with Staphylococcus aureus [1] (time 16-20 hrs), the inhibition entry is “Dose-Dependent Effect”. Also, the inhibition entry in the assay with Staphylococcus aureus [2] and in the assay with Staphylococcus aureus [3] was “inactive” each time. Further, the Activity in the assay with Staphylococcus aureus [4] was 30%.

With `CCCCC1CCCCCCc2cc1c(/C=C1\N=C(c3ccc[nH]3)C=C1OC)[nH]2` (stereo not drawn) [STREPTORUBIN B], at 1 µg/mL the inhibition with Staphylococcus aureus [5] was 70%.
